Assay results as given in PubChem BioAssay AID1648 (Sanford-Burnham Center for Chemical Genomics, 2009).
The source made the active and inactive calls. The rule behind the calls is not given here.

Molecular target: Serine/threonine-protein kinase mTOR (Homo sapiens) (UniProt P42345)
Experiment: binders of mTOR FRB domain, biophysical, NMR (AID 1648)
Details: NMR binding to FRB domain, chemical shift

Chain of Serine/threonine-protein kinase mTOR (Homo sapiens) (P42345 2015-2114): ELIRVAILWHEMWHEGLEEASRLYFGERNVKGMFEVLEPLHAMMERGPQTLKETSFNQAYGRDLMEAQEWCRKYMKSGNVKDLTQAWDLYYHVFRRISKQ

Compound | Kd
Cc1cc(C(=O)NC2=NCCS2)cs1 | > 4 mM (inactive)
Cc1ccc(C)c(S(=O)(=O)NCc2cccnc2)c1 | > 4 mM (inactive)
NC(=O)CSc1nnc(-c2ccncc2)o1 | > 4 mM (inactive)
CS(=O)(=O)N1CCN(C(=O)Cc2cccs2)CC1 | > 4 mM (inactive)
CC1(C)Cc2c(c(-c3ccco3)[nH]c(=O)c2C#N)CO1 | > 4 mM (inactive)
COc1ccc(CN2CCOCC2)c(C)c1C | > 4 mM (inactive)
N#Cc1nc(-c2ccccc2Cl)oc1N1CCOCC1 | > 4 mM (inactive)
NC(=O)Cn1nnc(-c2ccc(C(F)(F)F)cc2)n1 | > 4 mM (inactive)
O=CN1CCN(C(=O)c2ccccc2Cl)CC1 | > 4 mM (inactive)
COc1cc2[nH]c(=S)n(C)c(=O)c2cc1OC | > 4 mM (inactive)
Cc1csc2nc(=O)c3ccccc3n12 | > 4 mM (inactive)
COC(=O)CSc1n[nH]c(N)n1 | > 4 mM (inactive)
COC(=O)c1noc(C)c1C(C)=O | > 4 mM (inactive)
CN(C)C(=O)Nc1ccc2c(c1)nnn2C | > 4 mM (inactive)
CNS(=O)(=O)c1cc(OC)ccc1OC | > 4 mM (inactive)
O=c1ccc2ccc(O)cc2o1 | > 4 mM (inactive)
Cc1ccc2cc(N)ccc2n1 | > 4 mM (inactive)
Cc1cc(C)cc(C(=O)N2CCC(C(N)=O)CC2)c1 | > 4 mM (inactive)
O=S1(=O)CCC(N2CCCCC2)C1 (stereo not given) | > 4 mM (inactive)
COc1ccc2cc1Oc1ccc(cc1)C[C@H]1c3c(cc4c(c3Oc3cc5c(cc3OC)CCN(C)[C@@H]5C2)OCO4)CCN1C | > 4 mM (inactive)
COc1ccc(-c2oc3ccccc3c(=O)c2O)cc1OC | > 4 mM (inactive)
CN1CCC(NC(=O)c2cccnc2)CC1 | > 4 mM (inactive)
CSc1ccc(/C=N/n2c(C)nnc2C)cc1 | > 4 mM (inactive)

Compound | Kd
O=C1CN(C(=O)CN2CCOCC2)c2ccccc2N1 | > 4 mM (inactive)
O=C(O)CCCc1nc2ccccc2s1 | > 4 mM (inactive)
Cc1ccc(Nc2nc(N)nc(CC#N)n2)cc1 | > 4 mM (inactive)
Nc1ccc(CN2CCS(=O)(=O)CC2)cc1 | > 4 mM (inactive)
O=S(=O)(NCc1ccco1)c1cccc2cccnc12 | > 4 mM (inactive)
CC(=O)Nc1nnc(-c2ccncc2)s1 | > 4 mM (inactive)
CC1(C)C(=O)N(O)C(C)(C)C(=O)N1O | > 4 mM (inactive)
CN1CCN(c2ncnc3nc[nH]c23)CC1 | > 4 mM (inactive)
O=C(O)c1cccnc1Oc1ccccc1 | > 4 mM (inactive)
CC(=O)n1c(N)nc2ccccc21 | > 4 mM (inactive)
COc1ccc(C2(C)CC(=O)NC2=O)cc1 (stereo not given) | > 4 mM (inactive)
Cc1cc(C)n2nc(NCc3ccccc3)nc2n1 | > 4 mM (inactive)
CC(C)c1nnc(N)s1 | > 4 mM (inactive)
O=C(O)c1ccc2nccnc2c1 | > 4 mM (inactive)
O=C1C=C(Nc2ccccc2O)c2ccccc2C1=O | > 4 mM (inactive)
C/C1=C\CCC(=O)C2CC(C)(C)C2CC1 (stereo not given) | > 4 mM (inactive)
Cc1cn(C(=O)CN2C(=O)c3ccccc3C2=O)c(C)n1 | > 4 mM (inactive)
Cc1nccc(-c2cccc(N)c2)n1 | > 4 mM (inactive)
COc1ccccc1NC(=O)C1CCCCC1 | > 4 mM (inactive)
CN1C(=O)N(C)C2NC(=O)NC21 (stereo not given) | > 4 mM (inactive)
Cn1c2ccccc2n2c(=S)[nH]nc12 | > 4 mM (inactive)
O=C(O)c1ccc2c(c1)OCCO2 | > 4 mM (inactive)
O=C(Nc1ccccc1F)c1ccncc1 | > 4 mM (inactive)

Compound | Kd
CC(C)(C)C(=O)Nc1ncc(C(F)(F)F)cc1Cl | > 4 mM (inactive)
Cc1n[nH]c(=S)n(/N=C/c2ccccc2)c1=O | > 4 mM (inactive)
C=C[C@@](C)(O)CCC1C(=C)C[C@H](O)C2C(C)(C)CCCC12C (stereo not given in full) | > 4 mM (inactive)
O=C(/C=C/C=C/c1ccc2c(c1)OCO2)N1CCCCC1 | > 4 mM (inactive)
CN1C(CC(=O)c2ccccc2)CCCC1CC(O)c1ccccc1 (stereo not given) | > 4 mM (inactive)
CN(C)C(=O)Oc1ccc(-c2nnco2)cc1 | > 4 mM (inactive)
O=C1NC(=O)C(C(C[N+](=O)[O-])c2ccc(O)cc2)C(=O)N1 (stereo not given) | > 4 mM (inactive)
Nc1cccc(NC(=O)c2ccco2)c1 | > 4 mM (inactive)
O=C(Cc1ccc(F)cc1)Nc1ncccn1 | > 4 mM (inactive)
N[C@@H](CCC(=O)N[C@@H](CS)C(=O)NCC(=O)O)C(=O)O | > 4 mM (inactive)
Cc1occc1C(=O)N1CCC2(CC1)OCCO2 | > 4 mM (inactive)
COc1ccc(N2CC(=O)NC2=O)cc1 | > 4 mM (inactive)
O=CN1CCN(C(=O)c2ccc(F)cc2)CC1 | > 4 mM (inactive)
Cc1c(C(=O)Nc2cnccn2)oc2ccccc12 | > 4 mM (inactive)
Nc1oncc1-c1ccccn1 | > 4 mM (inactive)
O=c1[nH]c(CN2CCN(CCO)CC2)nc2ccccc12 | > 4 mM (inactive)
CCn1c2ccccc2c2nn(C)c(=N)nc21 | > 4 mM (inactive)
CN(C)c1ccc(/C=C2/NC(=S)NC2=O)cc1 | > 4 mM (inactive)
Nc1cc(=O)[nH]c(SCC(=O)NCc2ccccc2)n1 | > 4 mM (inactive)
C=C[C@@H](C1=CC(=O)C(OC)=C(OC)C1=O)c1ccccc1 | > 4 mM (inactive)
Cn1cccc1C(=S)N1CCOCC1 | > 4 mM (inactive)
O=C(O)CC1NCCNC1=O (stereo not given) | > 4 mM (inactive)
O=c1cc(-c2ccccc2)oc2cc(O)cc(O)c12 | > 4 mM (inactive)

Compound | Kd
NC(=O)Cn1cnc(-c2ccc(F)cc2)c1 | > 4 mM (inactive)
C=C1[C@H]2CC[C@@]3(C)[C@H](c4ccoc4)OC(=O)C[C@]13O[C@H]1C[C@H](O)C(C)(C)[C@H](CC(=O)OC)[C@]12C | > 4 mM (inactive)
Nc1nc(CSc2ncn(-c3ccccc3)n2)cs1 | > 4 mM (inactive)
Cc1cccc(CO)n1 | > 4 mM (inactive)
Cc1nnc(NCc2cccnc2)[nH]c1=O | > 4 mM (inactive)
O=C(CNC(=O)c1cccs1)NC1=NCCS1 | > 4 mM (inactive)
c1ccc(-c2n[nH]c(-c3ccccn3)n2)nc1 | > 4 mM (inactive)
CN(C)C(=O)C12CCC(C)(C(=O)O1)C2(C)C (stereo not given) | > 4 mM (inactive)
O=c1n(-c2cccc(Cl)c2)c(=O)n2n1CCC2 | > 4 mM (inactive)
O=c1[nH]cc(NCc2ccco2)c(=O)[nH]1 | > 4 mM (inactive)
COC(=O)CSc1nc(N)cc(=O)[nH]1 | > 4 mM (inactive)
C/C1=C/CC(C)(C)/C=C/C/C(C)=C/CC1 | > 4 mM (inactive)
O=C(Nc1ccccc1)Nc1ccccn1 | > 4 mM (inactive)
O=C1CC(=O)N(c2cccc(Cl)c2)N1 | > 4 mM (inactive)
Nc1cc(F)nc(F)n1 | > 4 mM (inactive)
CC1=C(C(N)=O)C(c2ccccc2)NC(=O)N1 (stereo not given) | > 4 mM (inactive)
CCOCC(=O)N1CCc2ccccc21 | > 4 mM (inactive)
c1ccc(-c2nnc(CNCc3ccco3)o2)cc1 | > 4 mM (inactive)
Nc1ccnc(C(=O)O)c1 | > 4 mM (inactive)
COc1ccccc1NC(=O)C1CCC(=O)N1 (stereo not given) | > 4 mM (inactive)
COc1ccccc1/C=C/CN1CCOCC1 | > 4 mM (inactive)
